Values of other authors as cited in US20080153927A1, “ALPHA-2B RECEPTOR AGONIST AND RELAXANT COMPOSITIONS FOR TREATING GASTROINTESTINAL MOTILITY DISORDERS” (Allergan, Inc., priority 2006, published 2008).

What does the source list for CN(C)[C@@H](CCOc1cccc2ccccc12)c1ccccc1 [Dapoxetine]?
initial half-life (in vivo): 1.2 h; time to maximum serum concentration (serum): about 1 hour
